In patent publication US4148896A, “Antidepressant combination” (E. I. Du Pont de Nemours and Company, priority 1978, dated 1979):
Where two headings read alike, the source gives them in different places.

Columns and labels:
[1] = system: tetrabenazine-induced sedation; experiment: Mouse antidepressant (antitetrabenazine) test: prevention of tetrabenazine-induced ptosis and loss of exploratory activity; settings: for ED50: Mus musculus, po; for No. of Mice Blocked, EXPLORATORY ACTIVITY / No. of Mice Blocked, PTOSIS: 1 h after amantadine
[2] = system: mice; settings: for NUMBER OF MICE DEAD: N=10; for Effect of amantadine on molindone toxicity (mortality): mice, oral
[3] = molecular target: T1, mouse brain MAO (Mus musculus, UniProt Q64133); settings: substrate 5 HT
T1 sequence (Q64133 1-526): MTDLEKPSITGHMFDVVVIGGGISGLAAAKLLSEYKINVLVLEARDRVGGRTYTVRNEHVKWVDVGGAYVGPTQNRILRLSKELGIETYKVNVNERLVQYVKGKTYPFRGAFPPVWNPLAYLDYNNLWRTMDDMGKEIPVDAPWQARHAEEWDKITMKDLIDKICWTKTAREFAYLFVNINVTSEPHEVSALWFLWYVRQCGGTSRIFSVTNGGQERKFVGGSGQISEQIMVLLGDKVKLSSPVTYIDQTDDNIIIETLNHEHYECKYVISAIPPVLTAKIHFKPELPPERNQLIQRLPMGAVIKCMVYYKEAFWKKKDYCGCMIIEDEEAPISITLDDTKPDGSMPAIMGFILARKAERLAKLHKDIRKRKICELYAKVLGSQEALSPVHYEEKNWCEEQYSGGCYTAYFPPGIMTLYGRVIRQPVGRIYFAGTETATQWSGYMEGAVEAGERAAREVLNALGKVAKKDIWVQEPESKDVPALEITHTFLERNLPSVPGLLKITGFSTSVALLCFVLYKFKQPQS

[4] = molecular target: T1, mouse brain MAO; experiment: biochemical
[5] = 1 mg/kg oral (free base), 1 h, N=10
[6] = 3 mg/kg oral (free base), 1 h, N=10
[7] = 9 mg/kg oral (free base), 1 h, N=10
[8] = 20 mg/kg oral (free base), 0.5 h, N=20
[9] = 20 mg/kg oral (free base), 1 h, N=20
[10] = 20 mg/kg oral (free base), 2 h, N=20
[11] = 20 mg/kg oral (free base), 4 h, N=20
[12] = 27 mg/kg oral (free base), 1 h, N=10
[13] = 81 mg/kg oral (free base), 1 h, N=10
[14] = amantadine 2 mg/kg oral alone, N=20
[15] = amantadine 6 mg/kg oral alone, N=20
[16] = amantadine 18 mg/kg oral alone, N=20
[17] = amantadine 54 mg/kg oral alone, N=20
[18] = amantadine alone, oral, 1 h, free base basis, N=20 (Table 2)

In the case of `NC12CC3CC(CC(C3)C1)C2` [Amantadine, 1-adamantanamine], the “NUMBER OF MICE BLOCKED, EXPLORATORY ACTIVITY” value [1, 5] is reported as 0, the “NUMBER OF MICE BLOCKED, PTOSIS” value [1, 5] is reported as 1 and the “NUMBER OF MICE BLOCKED, EXPLORATORY ACTIVITY” value [1, 6] is reported as 0. The “NUMBER OF MICE BLOCKED, PTOSIS” value [1, 6] was 1, the “NUMBER OF MICE BLOCKED, EXPLORATORY ACTIVITY” value [1, 7] was 4 and the “NUMBER OF MICE BLOCKED, PTOSIS” value [1, 7] was 5. For the same compound, the “NUMBER OF MICE BLOCKED, EXPLORATORY ACTIVITY” value [1, 8] was 1, the “NUMBER OF MICE BLOCKED, PTOSIS” value [1, 8] was 4 and the “NUMBER OF MICE BLOCKED, EXPLORATORY ACTIVITY” value [1, 9] was 8. For the same compound, the “NUMBER OF MICE BLOCKED, PTOSIS” value [1, 9] was 13, the “NUMBER OF MICE BLOCKED, EXPLORATORY ACTIVITY” value [1, 10] was 6 and the “NUMBER OF MICE BLOCKED, PTOSIS” value [1, 10] was 11. The “NUMBER OF MICE BLOCKED, EXPLORATORY ACTIVITY” value [1, 11] was 0, the “NUMBER OF MICE BLOCKED, PTOSIS” value [1, 11] was 2 and the “NUMBER OF MICE BLOCKED, EXPLORATORY ACTIVITY” value [1, 12] was 4. The “NUMBER OF MICE BLOCKED, PTOSIS” value [1, 12] was 7, the “NUMBER OF MICE BLOCKED, EXPLORATORY ACTIVITY” value [1, 13] was 8 and the “NUMBER OF MICE BLOCKED, PTOSIS” value [1, 13] was 10. For the same compound, the ED50 ([1]; 1 h, read-out: ED50, E[…], oral, free base basis, 1 h after drug (Table 1)) was 24 mg/kg, the ED50 ([1]; 1 h, read-out: ED50, PTOSIS, oral, free base basis, 1 h after drug (Table 1)) was 9.6 mg/kg and the “No. of Mice Blocked, EXPLORATORY ACTIVITY” value [1, 14] was 0. For the same compound, the “No. of Mice Blocked, PTOSIS” value [1, 14] was 2, the “No. of Mice Blocked, EXPLORATORY ACTIVITY” value [1, 15] was 2 and the “No. of Mice Blocked, PTOSIS” value [1, 15] was 4. The “No. of Mice Blocked, EXPLORATORY ACTIVITY” value [1, 16] was 12, the “No. of Mice Blocked, PTOSIS” value [1, 16] was 17 and the “No. of Mice Blocked, EXPLORATORY ACTIVITY” value [1, 17] was 16. For the same compound, the “No. of Mice Blocked, PTOSIS” value [1, 17] was 19, the “ED50, EXPLORATORY ACTIVITY, Amantadine” value [1, 18] was 16.6 mg/kg and the “ED50, PTOSIS, Amantadine” value [1, 18] was 9.4 mg/kg. For the same compound, the “ED50, PTOSIS” value ([1]; oral, free base basis, 1 h after drug (Table 1), 60 min) was 9.4 mg/kg, the “NUMBER OF MICE DEAD” value ([2]; amantadine 267 mg/kg oral alone, 0.5 h) was 0 and the “NUMBER OF MICE DEAD” value ([2]; amantadine 267 mg/kg oral alone, 1 h) was 0. For the same compound, the “NUMBER OF MICE DEAD” value ([2]; amantadine 267 mg/kg oral alone, 2 h) was 0, the “NUMBER OF MICE DEAD” value ([2]; amantadine 267 mg/kg oral alone, 4 h) was 0 and the “NUMBER OF MICE DEAD” value ([2]; amantadine 267 mg/kg oral alone, 24 h) was 0. For the same compound, the “NUMBER OF MICE DEAD” value ([2]; amantadine 267 mg/kg oral alone, 336 h) was 0, the “NUMBER OF MICE DEAD” value ([2]; amantadine 400 mg/kg oral alone, 0.5 h) was 1 and the “NUMBER OF MICE DEAD” value ([2]; amantadine 400 mg/kg oral alone, 1 h) was 1. The “NUMBER OF MICE DEAD” value ([2]; amantadine 400 mg/kg oral alone, 2 h) was 1, the “NUMBER OF MICE DEAD” value ([2]; amantadine 400 mg/kg oral alone, 4 h) was 1 and the “NUMBER OF MICE DEAD” value ([2]; amantadine 400 mg/kg oral alone, 24 h) was 1. The “NUMBER OF MICE DEAD” value ([2]; amantadine 400 mg/kg oral alone, 336 h) was 1, the “NUMBER OF MICE DEAD” value ([2]; amantadine 600 mg/kg oral alone, 0.5 h) was 4 and the “NUMBER OF MICE DEAD” value ([2]; amantadine 600 mg/kg oral alone, 1 h) was 4. The “NUMBER OF MICE DEAD” value ([2]; amantadine 600 mg/kg oral alone, 2 h) was 4, the “NUMBER OF MICE DEAD” value ([2]; amantadine 600 mg/kg oral alone, 4 h) was 4 and the “NUMBER OF MICE DEAD” value ([2]; amantadine 600 mg/kg oral alone, 24 h) was 5. For the same compound, the “NUMBER OF MICE DEAD” value ([2]; amantadine 600 mg/kg oral alone, 336 h) was 5, the “NUMBER OF MICE DEAD” value ([2]; amantadine 900 mg/kg oral alone, 0.5 h) was 8 and the “NUMBER OF MICE DEAD” value ([2]; amantadine 900 mg/kg oral alone, 1 h) was 8. For the same compound, the “NUMBER OF MICE DEAD” value ([2]; amantadine 900 mg/kg oral alone, 2 h) was 8, the “NUMBER OF MICE DEAD” value ([2]; amantadine 900 mg/kg oral alone, 4 h) was 8 and the “NUMBER OF MICE DEAD” value ([2]; amantadine 900 mg/kg oral alone, 24 h) was 8. The “NUMBER OF MICE DEAD” value ([2]; amantadine 900 mg/kg oral alone, 336 h) was 8, the “NUMBER OF MICE DEAD” value ([2]; amantadine 1350 mg/kg oral alone, 0.5 h) was 10 and the “NUMBER OF MICE DEAD” value ([2]; amantadine 1350 mg/kg oral alone, 1 h) was 10. For the same compound, the “NUMBER OF MICE DEAD” value ([2]; amantadine 1350 mg/kg oral alone, 2 h) was 10, the “NUMBER OF MICE DEAD” value ([2]; amantadine 1350 mg/kg oral alone, 4 h) was 10 and the “NUMBER OF MICE DEAD” value ([2]; amantadine 1350 mg/kg oral alone, 24 h) was 10. The “NUMBER OF MICE DEAD” value ([2]; amantadine 1350 mg/kg oral alone, 336 h) was 10, the “Effect of amantadine on molindone toxicity (mortality)” value [2] was “decreases the toxicity of molindone” and the “Effect of amantadine on molindone toxicity (mortality)” value ([2]; listed as amantadine hydrochloride) was “reduces molindone hydrochloride lethal toxicity”.
`NNCCc1ccccc1` [PHENELZINE . SO4] was tested, and the “% INHIBITION” value ([3]; final conc. 10^-4 m/l) was 88%, the “% INHIBITION” value ([3]; final conc. 10^-5 m/l) was 81% and the “% INHIBITION” value ([3]; final conc. 10^-6 m/l) was 3%. For the same compound, the IC50 [4] was 4 µM.
